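Protocol summary: plate cells (96-well), add compound at 5 concentrations, incubate 48 h, interpolate endpoints linearly. Definition used: TGI = concentration required for complete inhibition of growth.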
Assays:
Experiment in all cases: NCI-60 cell line screen, 48 h
HT29 colon = test system: HT29 colon
DU-145 prostate = test system: DU-145 prostate
UACC-257 melanoma = test system: UACC-257 melanoma
SNB-19 CNS = test system: SNB-19 CNS
UACC-62 melanoma = test system: UACC-62 melanoma
HS 578T breast = test system: HS 578T breast
RXF 393 renal = test system: RXF 393 renal
CCRF-CEM leukemia = test system: CCRF-CEM leukemia
BT-549 breast = test system: BT-549 breast

`CCSc1nc(N/N=C/c2cccs2)c2cnn(CO)c2n1` was tested, and the TGI (HT29 colon) was 13.4 µM, the TGI (DU-145 prostate) was 24.3 µM and the TGI (UACC-257 melanoma) was 26.4 µM. The TGI (SNB-19 CNS) was 27.1 µM, the TGI (UACC-62 melanoma) was 22.5 µM and the TGI (HS 578T breast) was 15.3 µM. For the same molecule, the TGI (RXF 393 renal) was 13.9 µM.

`O=C1Nc2ccc(Br)cc2/C1=N/N1C(=O)C(=O)N(C2CCCCC2)C1=S` gave a TGI (HT29 colon) of 7.91 µM, a TGI (DU-145 prostate) of 23.1 µM and a TGI (UACC-257 melanoma) of 34.7 µM. The TGI (SNB-19 CNS) was 69.1 µM, the TGI (UACC-62 melanoma) was 12.2 µM and the TGI (HS 578T breast) was 23.2 µM. It also gave a TGI (RXF 393 renal) of 21.8 µM and a TGI (CCRF-CEM leukemia) of 16.6 µM.

Molecule `O=C(O)c1nn(-c2ccccc2)nc1-c1nn(-c2ccccc2)nc1C(=O)O` has a TGI (HT29 colon) of over 100 µM, a TGI (DU-145 prostate) of over 100 µM and a TGI (UACC-257 melanoma) of over 100 µM. The TGI (SNB-19 CNS) was over 100 µM, the TGI (UACC-62 melanoma) was over 100 µM and the TGI (HS 578T breast) was over 100 µM. For the same molecule, the TGI (RXF 393 renal) was over 100 µM and the TGI (CCRF-CEM leukemia) was over 100 µM.

`CN1C(=O)C23CCCC2CC1(c1ccccc1)S3` (stereo not drawn) showed a TGI (HT29 colon) of over 100 µM, a TGI (DU-145 prostate) of over 100 µM and a TGI (UACC-257 melanoma) of 80.6 µM. The TGI (SNB-19 CNS) was over 100 µM, the TGI (BT-549 breast) was over 100 µM and the TGI (UACC-62 melanoma) was over 100 µM. For the same molecule, the TGI (HS 578T breast) was over 100 µM and the TGI (RXF 393 renal) was over 100 µM.

For `COc1ccc(Nc2nc(N)c(C(=O)c3ccc(Cl)cc3)s2)cc1`, the TGI (HT29 colon) was 5.28 µM, the TGI (DU-145 prostate) was 0.0558 µM and the TGI (UACC-257 melanoma) was over 100 µM. It also gave a TGI (SNB-19 CNS) of 31.2 µM, a TGI (BT-549 breast) of over 73.6 µM and a TGI (UACC-62 melanoma) of over 94.5 µM. For the same molecule, the TGI (HS 578T breast) was over 100 µM and the TGI (RXF 393 renal) was 0.0323 µM.

`CC(NNC(=O)c1ccncc1)c1cccc(C(F)(F)F)c1` (stereo not drawn) gave a TGI (HT29 colon) of over 100 µM, a TGI (DU-145 prostate) of over 100 µM and a TGI (UACC-257 melanoma) of over 100 µM. The TGI (UACC-62 melanoma) was over 100 µM, the TGI (HS 578T breast) was over 100 µM and the TGI (RXF 393 renal) was over 100 µM. The TGI (CCRF-CEM leukemia) was over 100 µM.

Work on `COc1cccc(OC)c1NC(=O)C(=O)Nn1c(NNC(=O)c2ccncc2)nc2ccccc2c1=O` yielded a TGI (HT29 colon) of over 100 µM, a TGI (UACC-257 melanoma) of over 100 µM and a TGI (SNB-19 CNS) of over 100 µM. The TGI (BT-549 breast) was over 100 µM, the TGI (UACC-62 melanoma) was over 100 µM and the TGI (HS 578T breast) was over 100 µM. It also gave a TGI (RXF 393 renal) of over 100 µM and a TGI (CCRF-CEM leukemia) of over 100 µM.

`CCNC(=S)NNC(=O)c1ccccc1Nc1ccccc1C(=O)NNC(=S)NCC` gave a TGI (HT29 colon) of over 100 µM, a TGI (DU-145 prostate) of over 100 µM and a TGI (SNB-19 CNS) of over 100 µM. It also gave a TGI (BT-549 breast) of over 100 µM, a TGI (UACC-62 melanoma) of over 100 µM and a TGI (HS 578T breast) of over 100 µM. For the same molecule, the TGI (CCRF-CEM leukemia) was over 100 µM.

`NC1=Nc2ccccc2Sc2cccc(F)c21` showed a TGI (HT29 colon) of over 100 µM, a TGI (DU-145 prostate) of over 100 µM and a TGI (UACC-257 melanoma) of over 100 µM. It also gave a TGI (SNB-19 CNS) of over 100 µM, a TGI (BT-549 breast) of over 100 µM and a TGI (UACC-62 melanoma) of over 100 µM. It also gave a TGI (RXF 393 renal) of over 100 µM and a TGI (CCRF-CEM leukemia) of 56.9 µM.

`COc1cc(S(=O)(=O)Nc2ccc(-c3csc(N4C(=O)CSC4c4ccccc4O)n3)cc2)ccc1Cl` (stereo not drawn) gave a TGI (HT29 colon) of over 100 µM, a TGI (DU-145 prostate) of over 100 µM and a TGI (UACC-257 melanoma) of 97.6 µM. The TGI (SNB-19 CNS) was over 100 µM, the TGI (BT-549 breast) was over 100 µM and the TGI (UACC-62 melanoma) was over 100 µM. It also gave a TGI (CCRF-CEM leukemia) of over 100 µM.

In the case of `Cc1ccnc(Nc2[nH]c(C(=O)c3ccc(Cl)cc3)c(N)c2C(=S)Nc2ccccc2)c1`, the TGI (HT29 colon) is reported as 28.6 µM, the TGI (DU-145 prostate) is reported as 63.7 µM and the TGI (UACC-257 melanoma) is reported as 32.7 µM. The TGI (SNB-19 CNS) was 64.1 µM, the TGI (BT-549 breast) was 30.5 µM and the TGI (UACC-62 melanoma) was 25.3 µM. For the same molecule, the TGI (RXF 393 renal) was 32.5 µM and the TGI (CCRF-CEM leukemia) was over 100 µM.

With `COc1ccc(/C=C/C(=O)c2ccc(Br)cc2)cc1` the TGI (HT29 colon) was over 100 µM, the TGI (DU-145 prostate) was over 100 µM and the TGI (SNB-19 CNS) was over 100 µM. The TGI (UACC-62 melanoma) was over 100 µM, the TGI (HS 578T breast) was over 100 µM and the TGI (CCRF-CEM leukemia) was over 100 µM.

Molecule `COc1cc2c[n+](C)c3c4cc(OC)c(OCc5ccccc5)cc4c(OCc4ccccc4)cc3c2cc1OC` has a TGI (HT29 colon) of 15.5 µM, a TGI (DU-145 prostate) of 45.7 µM and a TGI (UACC-257 melanoma) of 14.4 µM. The TGI (SNB-19 CNS) was 15.2 µM, the TGI (BT-549 breast) was 9.05 µM and the TGI (UACC-62 melanoma) was 10.4 µM. For the same molecule, the TGI (RXF 393 renal) was 41.1 µM and the TGI (CCRF-CEM leukemia) was 72.4 µM.

Molecule `C=CCOC(=O)Cn1ccc(=O)[nH]c1=O` has a TGI (HT29 colon) of over 100 µM, a TGI (DU-145 prostate) of over 100 µM and a TGI (UACC-257 melanoma) of over 100 µM. It also gave a TGI (SNB-19 CNS) of over 100 µM, a TGI (UACC-62 melanoma) of over 100 µM and a TGI (HS 578T breast) of over 100 µM. The TGI (CCRF-CEM leukemia) was over 100 µM.

Molecule `Cn1cc2c3ccccc3nc-2c2ccccc21` has a TGI (HT29 colon) of 5.35 µM, a TGI (DU-145 prostate) of 5.76 µM and a TGI (UACC-257 melanoma) of 5.85 µM. It also gave a TGI (SNB-19 CNS) of 10.6 µM, a TGI (BT-549 breast) of 14.7 µM and a TGI (UACC-62 melanoma) of 3.15 µM. For the same molecule, the TGI (HS 578T breast) was 5.3 µM and the TGI (CCRF-CEM leukemia) was 5.99 µM.

`C=C(C)CCC1C=[N+]([O-])OC(C)(C)C1(C)C` (stereo not drawn) showed a TGI (HT29 colon) of over 100 µM, a TGI (DU-145 prostate) of over 100 µM and a TGI (UACC-257 melanoma) of over 100 µM. The TGI (UACC-62 melanoma) was over 100 µM, the TGI (HS 578T breast) was over 100 µM and the TGI (RXF 393 renal) was over 100 µM. It also gave a TGI (CCRF-CEM leukemia) of over 100 µM.

With `CC(C)(C)OC(=O)N1N=CCC1c1ccccc1` (stereo not drawn) the TGI (HT29 colon) was over 100 µM, the TGI (DU-145 prostate) was over 100 µM and the TGI (UACC-257 melanoma) was over 100 µM. It also gave a TGI (UACC-62 melanoma) of over 100 µM, a TGI (HS 578T breast) of over 100 µM and a TGI (RXF 393 renal) of over 100 µM. For the same molecule, the TGI (CCRF-CEM leukemia) was over 100 µM.

Work on `O=C1CC(c2ccccc2)n2c(nc3ccccc32)N1` (stereo not drawn) yielded a TGI (HT29 colon) of over 100 µM, a TGI (UACC-257 melanoma) of over 100 µM and a TGI (SNB-19 CNS) of over 100 µM. For the same molecule, the TGI (BT-549 breast) was over 100 µM, the TGI (UACC-62 melanoma) was over 100 µM and the TGI (HS 578T breast) was over 100 µM. The TGI (RXF 393 renal) was over 100 µM.

With `O=c1[nH]c2ccc(CC(=S)N3CCOCC3)cc2o1` the TGI (HT29 colon) was over 100 µM, the TGI (UACC-257 melanoma) was over 100 µM and the TGI (BT-549 breast) was over 100 µM. It also gave a TGI (UACC-62 melanoma) of over 100 µM, a TGI (HS 578T breast) of over 100 µM and a TGI (RXF 393 renal) of over 100 µM. For the same molecule, the TGI (CCRF-CEM leukemia) was over 100 µM.

For `CCN(C(=O)N[C@H](C(=O)N[C@@H](CSC)C(=O)N[C@@H](C)C(=O)OC)C(C)C)c1ccccc1`, the TGI (HT29 colon) was 27.2 µM, the TGI (DU-145 prostate) was 31.2 µM and the TGI (UACC-257 melanoma) was 25 µM. It also gave a TGI (SNB-19 CNS) of 33.4 µM, a TGI (BT-549 breast) of 32.5 µM and a TGI (UACC-62 melanoma) of 27 µM. It also gave a TGI (RXF 393 renal) of 32.2 µM and a TGI (CCRF-CEM leukemia) of 19.3 µM.

`O=C(CC(C(=O)c1cccs1)c1ccsc1)c1ccc(Cl)s1` (stereo not drawn) was tested, and the TGI (HT29 colon) was over 100 µM, the TGI (DU-145 prostate) was over 100 µM and the TGI (UACC-257 melanoma) was over 100 µM. For the same molecule, the TGI (SNB-19 CNS) was over 100 µM, the TGI (UACC-62 melanoma) was over 100 µM and the TGI (HS 578T breast) was over 100 µM. It also gave a TGI (CCRF-CEM leukemia) of over 100 µM.

Molecule `COC(=O)C(=O)C(C(=O)OC)C(=O)C(=O)Nc1c(Cl)cc([N+](=O)[O-])cc1Cl` (stereo not drawn) has a TGI (HT29 colon) of over 100 µM, a TGI (UACC-257 melanoma) of over 100 µM and a TGI (SNB-19 CNS) of over 100 µM. It also gave a TGI (BT-549 breast) of over 100 µM, a TGI (UACC-62 melanoma) of over 100 µM and a TGI (HS 578T breast) of over 100 µM. It also gave a TGI (RXF 393 renal) of over 100 µM.

Source: PubChem BioAssay (NCI)
